Measured values taken from patent publication US7244760B2, “Methods for preparation and use of psorospermin analogs” (Board of Regents, The University of Texas System, priority 2001, dated 2007).
pIC50: −log10 of the molar value. Entries after “also recorded” stand apart in the source; their conditions may differ. Like-named read-outs stand apart in the source and are kept apart here.

Columns and labels:
[1] = test system: HL-60 (promyelocytic leukemia); assay: Microcytoxicity assay (SRB), HL-60; type: cell-based, human
Description: (§1) (i) Human tumor cell lines. Human tumor cell lines representative of major forms of human cancer for use in the microcytoxicity assay include MCF7 (breast), SW480 (colon), HL-60 (promyelocytic leukemia), MiaPaCa-2 (pancreatic), U937 (histiocytic lymphoma), and 8226 (myeloma) (see Table 5). One drug resistant variant of 8226 was also included: 8226/DOX40, an mdr-1-mediated drug resistant cell line. Other matched pairs may also be added. All lines have known karyotypes that are checked at least annually for quality control.
(§2) Cells were grown in suspension in RPMI 1640 medium supplemented with 5% fetal bovine serum, 1% (v/v) penicillin (100 unit/ml), streptomycin (100 μg/ml), and 1% (v/v) L-glutamine (all from GIBCO, Grand Island, N.Y.) at 37° C. in 5% CO2, 95% air atmosphere, and were passaged once every six days. Additionally, these lines are capable of in vivo growth in SCID mice for in vivo confirmatory studies. In initial experiments, two diastereomeric pairs of (±)-psorospermin methyl ethers in a series of cell lines were evaluated.
(§3) (ii) Microcytoxicity assay. A standard 96-well microcytoxicity assay is performed by plating each cell line in a microtiter plate at 4,000-10,000 cells per well (depending on cell doubling time), six replicate wells per drug dose. All plates are incubated for 4 days at 37° C. in a humidified tissue culture incubator containing 5% CO2 in air. The endpoint determination uses sulforhodamine blue (SRB) and spectrophotometric determination of protein content of each well as reflected by SRB staining. IC50 values were calculated by linear regression analysis.

LnCAP = assay: Microcytoxicity assay (SRB), LnCAP; type: cell-based, human; conditions: Prostate, lymph node mets
Procedure: as §2, §3

[2] = test system: U937 (histiocytic lymphoma); assay: Microcytoxicity assay (SRB), U937; type: cell-based, human; conditions: 4 days
Description: as §1, §2
(§4) (ii) Microcytoxicity assay. A standard 96-well microcytoxicity assay is performed by plating each cell line in a microtiter plate at 4,000-10,000 cells per well (depending on cell doubling time), six replicate wells per drug dose. […] IC50 values were calculated by linear regression analysis.

MiaPaCa-2 (pancreatic) = assay: Microcytoxicity assay (SRB), MiaPaCa-2; type: cell-based, human; conditions: for In vitro cytotoxic potency: MiaPaCa-2, 4 days, SRB
Description: as §1, §2, §3

MCF 10A = assay: Microcytoxicity assay (SRB), MCF 10A; type: cell-based; conditions: Breast, normal mammary
Procedure: as §2, §3

MCF7 (breast) = assay: Microcytoxicity assay (SRB), MCF7; type: cell-based, human; conditions: for In vitro cytotoxic potency: 4 days, SRB
Description: as §1, §2, §3

PC-3N = assay: Microcytoxicity assay (SRB), PC-3N; type: cell-based, human; conditions: Prostate, N-cadherin positive
Procedure: as §2, §3

K562 = assay: Microcytoxicity assay (SRB), K562; type: cell-based, human; conditions: Chronic myelogenous leukemia
Procedure: as §2, §3

DU 145 = assay: Microcytoxicity assay (SRB), DU 145; type: cell-based, human
Procedure: as §2, §3

tumor cell lines = assay: Microcytoxicity assay, all tumor cell lines tested; type: cell-based, human; conditions: on average over the cell lines of Table 5
Description: as §1, §2, §4

A2780 = assay: Microcytoxicity assay (SRB), A2780; type: cell-based, human; conditions: Ovarian
Procedure: as §2, §3

[3] = test system: HL60/AR (adriamycin resistant); assay: Microcytoxicity assay (SRB), HL60/AR; type: cell-based, human; conditions: Acute promyelocytic leukemia
Procedure: as §2, §3

SW480 (colon) = assay: Microcytoxicity assay (SRB), SW480; type: cell-based, human; conditions: 4 days
Description: as §1, §2, §4

[4] = test system: K562/R (daunorubicin resistant); assay: Microcytoxicity assay (SRB), K562/R; type: cell-based, human; conditions: Chronic myelogenous leukemia
Procedure: as §2, §3

PC-3 = assay: Microcytoxicity assay (SRB), PC-3; type: cell-based, human; conditions: Prostate, adenocarcinoma, mets
Procedure: as §2, §3

[5] = test system: Acute promyelocytic leukemia; assay: Microcytoxicity assay (SRB), cell line not given; type: cell-based, human; conditions: cell line cell empty; origin Acute promyelocytic leukemia
Procedure: as §2, §3

[6] = test system: A2780/CP70 (cisplatin resistant); assay: Microcytoxicity assay (SRB), A2780/CP70; type: cell-based, human; conditions: Ovarian
Procedure: as §2, §3

PEAZ-1 = assay: Microcytoxicity assay (SRB), PEAZ-1; type: cell-based, human; conditions: Prostate, primary
Procedure: as §2, §3

[7] = test system: 8226/DOX40, an mdr-1-mediated drug resistant cell line; assay: Microcytoxicity assay (SRB), 8226/DOX40; type: cell-based, human; conditions: 4 days
Description: as §1, §2, §4

8226 (myeloma) = assay: Microcytoxicity assay (SRB), 8226; type: cell-based, human; conditions: 4 days
Description: as §1, §2, §4

[8] = biological target: topoisomerase II-DNA complex (Drosophila melanogaster, UniProt P15348); assay: Topoisomerase II site-directed alkylation of DNA; type: biochemical; conditions: in the presence of topoisomerase II
Procedure: (§5) In the absence of psorospermin, the intensity of the topoisomerase II-mediated DNA cleavage is much less at site B than at site A. As the concentration of psorospermin was increased, the topoisomerase II-mediated DNA cleavage at site A was decreased, while the cleavage at site B was enhanced. The psorospermin-induced DNA cleavage by topoisomerase II reaches a maximum of 3-fold at a 10 μM drug concentration (FIG. 4). […] On the other hand, the cleaved complex formation at site A was reduced in the presence of psorospermin, despite the 3-fold enhancement of psorospermin alkylation at site A.
(§6) Sites A and B are three base pairs apart from each other, and Drosophila topoisomerase II binds a region of approximately 23 base pairs, based on the results of a DNase I footprinting experiment (Lee et al, 1989). Therefore, it is likely that sites A and B are competing with each other for topoisomerase II binding, and the 25-fold enhancement of the psorospermin alkylation at site B dominates this competition. FIG. 5 summarizes the three possible biochemical consequences of the site-directed alkylation of DNA by psorospermin. Because psorospermin is a 7-alkyl adduct, depurination occurs slowly at room temperature over a period of several days.

P388 mouse leukemia = conditions: cited from earlier work
various tumor cell lines = conditions: cited from earlier work
topoisomerase II = topoisomerase II (Drosophila melanogaster, UniProt P15348); assay: Topoisomerase II-mediated DNA cleavage; type: biochemical
Procedure: as §5, §6

HT-29 = assay: Microcytoxicity assay (SRB), HT-29; type: cell-based, human
Procedure: as §3

topoisomerase II, sequence (P15348 whole entry): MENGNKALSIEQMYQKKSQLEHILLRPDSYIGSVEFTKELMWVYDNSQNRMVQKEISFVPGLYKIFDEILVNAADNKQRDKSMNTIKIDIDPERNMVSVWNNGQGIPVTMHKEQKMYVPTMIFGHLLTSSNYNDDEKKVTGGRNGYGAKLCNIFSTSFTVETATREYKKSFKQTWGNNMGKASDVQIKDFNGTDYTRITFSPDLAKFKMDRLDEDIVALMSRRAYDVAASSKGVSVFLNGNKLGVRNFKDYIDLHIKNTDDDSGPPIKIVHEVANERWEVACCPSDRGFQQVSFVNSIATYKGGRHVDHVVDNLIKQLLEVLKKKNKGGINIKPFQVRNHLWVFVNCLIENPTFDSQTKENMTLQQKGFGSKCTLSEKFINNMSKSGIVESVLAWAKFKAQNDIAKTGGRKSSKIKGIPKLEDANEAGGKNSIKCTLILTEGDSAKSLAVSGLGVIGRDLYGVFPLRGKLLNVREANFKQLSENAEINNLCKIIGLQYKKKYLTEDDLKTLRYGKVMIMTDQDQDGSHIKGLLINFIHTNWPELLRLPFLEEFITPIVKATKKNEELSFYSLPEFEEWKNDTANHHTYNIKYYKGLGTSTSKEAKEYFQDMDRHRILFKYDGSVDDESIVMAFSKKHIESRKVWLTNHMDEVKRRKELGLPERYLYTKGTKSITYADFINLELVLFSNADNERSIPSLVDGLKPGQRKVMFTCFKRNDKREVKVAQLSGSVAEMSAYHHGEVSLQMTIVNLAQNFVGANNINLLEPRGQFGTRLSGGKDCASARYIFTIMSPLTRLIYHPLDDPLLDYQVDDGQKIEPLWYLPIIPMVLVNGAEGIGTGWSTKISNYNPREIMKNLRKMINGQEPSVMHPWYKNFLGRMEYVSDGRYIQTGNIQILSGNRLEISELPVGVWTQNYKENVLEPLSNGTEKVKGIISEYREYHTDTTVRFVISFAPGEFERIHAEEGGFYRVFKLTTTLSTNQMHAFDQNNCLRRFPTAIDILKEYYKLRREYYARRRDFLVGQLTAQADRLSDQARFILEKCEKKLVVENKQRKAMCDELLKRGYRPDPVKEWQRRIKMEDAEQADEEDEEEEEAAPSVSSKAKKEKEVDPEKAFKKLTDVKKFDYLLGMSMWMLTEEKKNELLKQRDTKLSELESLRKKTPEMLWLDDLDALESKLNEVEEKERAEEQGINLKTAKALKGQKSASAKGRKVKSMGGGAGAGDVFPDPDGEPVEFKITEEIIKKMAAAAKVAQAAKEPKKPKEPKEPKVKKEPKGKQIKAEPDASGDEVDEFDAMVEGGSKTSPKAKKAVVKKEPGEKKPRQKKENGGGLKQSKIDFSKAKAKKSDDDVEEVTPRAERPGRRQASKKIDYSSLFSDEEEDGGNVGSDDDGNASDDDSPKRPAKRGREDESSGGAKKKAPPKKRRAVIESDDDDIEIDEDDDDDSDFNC
topoisomerase II-DNA complex, sequence (P15348 whole entry, one chain of several): as the sequence (P15348 whole entry) above

COc1c2c(c3oc4ccccc4c(=O)c3c1OC)CC([C@@]1(C)CO1)O2 (mixture of isomers) [Compound A, (±)-(2′R,3′R) (2′S,3′S) psorospermin methyl ether]
pIC50 ([1]; HL60, origin printed: promyelocytic leukemia): 7.44
In vitro cytotoxic potency ([1]; HL-60, 4 days, SRB): 0.026 µg/mL
pIC50 (LnCAP): 6.34
In vitro cytotoxic potency [2]: 0.062 µg/mL
pIC50 (MiaPaCa-2 (pancreatic); MIA PaCa-2, pancreas, read-out: IC50 Values): 6.74
activity in the pancreatic cell line MiaPaCa (MiaPaCa-2 (pancreatic); MiaPaCa): remarkable activity
In vitro cytotoxic potency (MiaPaCa-2 (pancreatic)): 0.26 µg/mL
activity in MiaPaCa compared with gemcytabine (MiaPaCa-2 (pancreatic); MiaPaCa, versus gemcytabine): as good or better
pIC50 (MCF 10A): 5.27
In vitro cytotoxic potency (MCF7 (breast)): 0.28 µg/mL
pIC50 (MCF7 (breast); Breast, adenocarcinoma): 6.21
pIC50 (PC-3N): 6.89
pIC50 (K562): 7.44
pIC50 (DU 145; DU 145, Prostate, brain mets, read-out: IC50 Values): 6.52
effectiveness relative to Compound B (tumor cell lines): more potent; also recorded: twice as effective
pIC50 (A2780): 7.20
pIC50 [3]: 7.92
In vitro cytotoxic potency (SW480 (colon)): 0.24 µg/mL
pIC50 [4]: 7.62
pIC50 (PC-3): 6.55
pIC50 [5]: 7.96
pIC50 [6]: 6.33
pIC50 (PEAZ-1): 6.80
In vitro cytotoxic potency [7]: 0.06 µg/mL
In vitro cytotoxic potency (8226 (myeloma)): 0.21 µg/mL

COc1cc2c(c3oc4c(O)cccc4c(=O)c13)C[C@H]([C@@]1(C)CO1)O2 [psorospermin]
enhancement of psorospermin alkylation at site A ([8]; site A): 3 fold
enhancement of the psorospermin alkylation at site B ([8]; site B): 25 fold
activity in vivo against P388 mouse leukemia (P388 mouse leukemia): significant activity
activity in vitro against various tumor cell lines (various tumor cell lines): significant activity
topoisomerase II-mediated DNA cleavage at site A (topoisomerase II; site A, as the concentration of psorospermin was increased): decreased
psorospermin-induced DNA cleavage by topoisomerase II, maximum (topoisomerase II; site B, 10 μM drug concentration): 3 fold

(2R,3S)-psorospermin methyl ether [Compound 117]
pIC50 (MiaPaCa-2 (pancreatic); MiaPaCa, read-out: IC50): 6.40
pIC50 (HT-29): 6.15
pIC50 (DU 145; DU-145, read-out: IC50): 6.40

(2S,3R)-psorospermin methyl ether [Compound 116]
pIC50 (MiaPaCa-2 (pancreatic); MiaPaCa, read-out: IC50): 5.40
pIC50 (HT-29): 5.15
pIC50 (DU 145; DU-145, read-out: IC50): 5.40

(±)-(2′R,3′S) (2′S,3′R) psorospermin methyl ether [Compound B]
sensitivity of HL-60 ([1]; HL-60, positive for c-myc and BCL-2): highly sensitive
In vitro cytotoxic potency (MiaPaCa-2 (pancreatic)): 0.48 µg/mL
In vitro cytotoxic potency (MCF7 (breast)): 0.74 µg/mL
In vitro cytotoxic potency (SW480 (colon)): 0.36 µg/mL
In vitro cytotoxic potency [7]: 0.30 µg/mL
In vitro cytotoxic potency (8226 (myeloma)): 0.33 µg/mL
